# Columns and labels:
# Experiment in all cases: Ba/F3 drug screening, Cell Titer Glo, IC50 Mut/WT
# Type in all cases: cell-based
# [1] = molecular target: T1, EGFR G719S (Homo sapiens, UniProt P00533, G719S); conditions: Ba/F3 cells, EGFR G719S (PACC), Mut/WT
# T1 construct: expressed in transfected cells; host or cells: Ba/F3
# [2] = molecular target: T2, EGFR L858R T790M L792H (Homo sapiens, UniProt P00533, L792H/L858R/T790M); conditions: T790M-like-3S, 72 hours
# T2 construct: expressed in transfected cells; host or cells: Ba/F3
# [3] = molecular target: T3, EGFR N771dupN (Homo sapiens, UniProt P00533, DUP771-771); conditions: Ex20, 72 hours
# T3 construct: expressed in transfected cells; host or cells: Ba/F3 cells, retroviral pBabe-Puro vector
# Protocol: Data represent the ratio of the IC50 value for a given TKI for cells with an ex20ins EGFR mutation to the IC50 value for cells with wildtype EGFR.
# (§1) Ba/F3 cell generation, drug screening, and IC50 approximations. Ba/F3 cells were obtained as a gift from Dr. Gordon Mills (MD Anderson Cancer Center), and maintained in RPMI (Sigma) containing 10% FBS, 1% penicillin/streptomycin, and 10 ng/ml recombinant mIL-3 (R&D Biosystems). To establish stable Ba/F3 cell lines, Ba/F3 cells were transduced with retroviruses containing mutant EGFR plasmids for 12-24 hours.
# After 48-72 hours of transduction, 2 μg/ml puromycin (Invitrogen) was added to Ba/F3 cell lines in complete RPMI. To select for EGFR positive cell lines, cells were stained with PE-EGFR (Biolegend) and sorted by FACS. After sorting, EGFR positive cells were maintained in RPMI containing 10% FBS, 1% penicillin/streptomycin, and 1 ng/ml EGF to support cell viability. Drug screening was performed as previously described^41,42. Shortly, cells were plated in 384-well plates (Greiner Bio-One) at 2000-3000 cells per well in technical triplicate. Seven different concentrations of TKIs or DMSO vehicle were added to reach a final volume of 40 μL per well. After 72 hours, 11 μL of Cell Titer Glo (Promega) was added to each well. Plates were incubated for a minimum of 10 minutes, and bioluminescence was determined using a FLUOstar OPTIMA plate reader (BMG LABTECH). Raw bioluminescence values were normalized to DMSO control treated cells, and values were plotted in GraphPad Prism. […] Drug screens were performed in technical triplicate on each plate and either duplicate or triplicate biological replicates. […] Statistical differences between groups were determined by ANOVA as described in the figure legends.
# [4] = molecular target: T4, EGFR Ex19del/T790M/L792H (Homo sapiens, UniProt P00533, DEL746-750/L792H/T790M); conditions: T790M-like-3R, 72 hours
# T4 construct: expressed in transfected cells; host or cells: Ba/F3
# [5] = molecular target: T5, EGFR Ex19del L718V (Homo sapiens, UniProt P00533, DEL746-750/L718V); conditions: Ba/F3 cells, EGFR Ex19del L718V (PACC), Mut/WT
# T5 construct: expressed in transfected cells; host or cells: Ba/F3
# [6] = molecular target: T6, EGFR E709K (Homo sapiens, UniProt P00533, E709K); conditions: Ba/F3 cells, EGFR E709K (PACC), Mut/WT
# T6 construct: expressed in transfected cells; host or cells: Ba/F3
# Protocol: (§2) Data represent the ratio of the IC50 value for a given TKI for cells with a PACC EGFR mutation to the IC50 value for cells with wildtype EGFR.
# as §1
# (§3) After 48-72 hours of transduction, 2 μg/ml puromycin (Invitrogen) was added to Ba/F3 cell lines in complete RPMI. To select for EGFR positive cell lines, cells were stained with PE-EGFR (Biolegend) and sorted by FACS. After sorting, EGFR positive cells were maintained in RPMI containing 10% FBS, 1% penicillin/streptomycin, and 1 ng/ml EGF to support cell viability. Drug screening was performed as previously described^41,42. Shortly, cells were plated in 384-well plates (Greiner Bio-One) at 2000-3000 cells per well in technical triplicate. Seven different concentrations of TKIs or DMSO vehicle were added to reach a final volume of 40 μL per well. After 72 hours, 11 μL of Cell Titer Glo (Promega) was added to each well. Plates were incubated for a minimum of 10 minutes, and bioluminescence was determined using a FLUOstar OPTIMA plate reader (BMG LABTECH). Raw bioluminescence values were normalized to DMSO control treated cells, and values were plotted in GraphPad Prism. […] Drug screens were performed in technical triplicate on each plate and either duplicate or triplicate biological replicates.
# [7] = molecular target: T7, EGFR Ex19del T790M C797S (Homo sapiens, UniProt P00533, C797S/DEL746-750/T790M); conditions: T790M-like-3R, 72 hours
# T7 construct: expressed in transfected cells; host or cells: Ba/F3
# [8] = molecular target: T8, EGFR E709A (Homo sapiens, UniProt P00533, E709A); conditions: Ba/F3 cells, EGFR E709A (PACC), Mut/WT
# T8 construct: expressed in transfected cells; host or cells: Ba/F3
# [9] = molecular target: T9, EGFR T790M (Homo sapiens, UniProt P00533, T790M); conditions: T790M-like-3S, 72 hours
# T9 construct: expressed in transfected cells; host or cells: Ba/F3
# Protocol: (§4) Data represent the ratio of the IC50 value for a given TKI for cells with a T790M-like-3S EGFR mutation to the IC50 value for cells with wildtype EGFR.
# as §1, §3
# [10] = molecular target: T10, EGFR E709K L858R (Homo sapiens, UniProt P00533, E709K/L858R); conditions: Classical-Like, 72 hours
# T10 construct: expressed in transfected cells; host or cells: Ba/F3 cells, retroviral pBabe-Puro vector
# Protocol: (§5) Data represent the ratio of the IC50 value for a given TKI for cells with a classical-like EGFR mutation to the IC50 value for cells with wildtype EGFR.
# as §1
# (§6) After 48-72 hours of transduction, 2 μg/ml puromycin (Invitrogen) was added to Ba/F3 cell lines in complete RPMI. To select for EGFR positive cell lines, cells were stained with PE-EGFR (Biolegend) and sorted by FACS. After sorting, EGFR positive cells were maintained in RPMI containing 10% FBS, 1% penicillin/streptomycin, and 1 ng/ml EGF to support cell viability. […] Shortly, cells were plated in 384-well plates (Greiner Bio-One) at 2000-3000 cells per well in technical triplicate. Seven different concentrations of TKIs or DMSO vehicle were added to reach a final volume of 40 μL per well. After 72 hours, 11 μL of Cell Titer Glo (Promega) was added to each well. Plates were incubated for a minimum of 10 minutes, and bioluminescence was determined using a FLUOstar OPTIMA plate reader (BMG LABTECH). Raw bioluminescence values were normalized to DMSO control treated cells, and values were plotted in GraphPad Prism. […] Drug screens were performed in technical triplicate on each plate and either duplicate or triplicate biological replicates.
# [11] = molecular target: T11, EGFR Ex19del G796S (Homo sapiens, UniProt P00533, DEL746-750/G796S); conditions: Ba/F3 cells, EGFR Ex19del G796S (PACC), Mut/WT
# T11 construct: expressed in transfected cells; host or cells: Ba/F3
# [12] = molecular target: T12, EGFR Ex19del T790M (Homo sapiens, UniProt P00533, DEL746-750/T790M); conditions: T790M-like-3S, 72 hours
# T12 construct: expressed in transfected cells; host or cells: Ba/F3
# [13] = molecular target: T13, EGFR S768dupSVD (Homo sapiens, UniProt P00533, DUP768-770); conditions: Ex20, 72 hours
# T13 construct: expressed in transfected cells; host or cells: Ba/F3 cells, retroviral pBabe-Puro vector
# [14] = molecular target: T14, EGFR D761N (Homo sapiens, UniProt P00533, D761N); conditions: Classical-Like, 72 hours
# T14 construct: expressed in transfected cells; host or cells: Ba/F3 cells, retroviral pBabe-Puro vector
# Protocol: as §5, §1, §6
# [15] = molecular target: T15, EGFR L858R/C797S (Homo sapiens, UniProt P00533, C797S/L858R); conditions: Ba/F3 cells, EGFR L858R/C797S (PACC), Mut/WT
# T15 construct: expressed in transfected cells; host or cells: Ba/F3
# Protocol: as §2, §1, §3
# [16] = molecular target: T16, EGFR G719A (Homo sapiens, UniProt P00533, G719A); conditions: Ba/F3 cells, EGFR G719A (PACC), Mut/WT
# T16 construct: expressed in transfected cells; host or cells: Ba/F3
# [17] = molecular target: T17, EGFR S720P (Homo sapiens, UniProt P00533, S720P); conditions: Classical-Like, 72 hours
# T17 construct: expressed in transfected cells; host or cells: Ba/F3 cells, retroviral pBabe-Puro vector (vector made by GeneScript from EGFR WT)
# [18] = molecular target: T18, EGFR L858R/L718V (Homo sapiens, UniProt P00533, L718V/L858R); conditions: Ba/F3 cells, EGFR L858R/L718V (PACC), Mut/WT
# T18 construct: host or cells: Ba/F3
# Protocol: as §2, §1, §3
# [19] = molecular target: T19, EGFR G719S T790M (Homo sapiens, UniProt P00533, G719S/T790M); conditions: T790M-like-3S, 72 hours
# T19 construct: expressed in transfected cells; host or cells: Ba/F3
# [20] = molecular target: T20, EGFR L718V (Homo sapiens, UniProt P00533, L718V); conditions: Ba/F3 cells, EGFR L718V (PACC), Mut/WT
# T20 construct: expressed in transfected cells; host or cells: Ba/F3
# Protocol: as §2, §1, §3
# [21] = molecular target: T21, EGFR A763insLQEA (Homo sapiens, UniProt P00533, INS763LQEA); conditions: Classical-Like, 72 hours
# T21 construct: expressed in transfected cells; host or cells: Ba/F3 cells, retroviral pBabe-Puro vector
# [22] = molecular target: T22, EGFR G719A T790M (Homo sapiens, UniProt P00533, G719A/T790M); conditions: T790M-like-3S, 72 hours
# T22 construct: expressed in transfected cells; host or cells: Ba/F3
# Protocol: as §4, §1, §3
# [23] = molecular target: T23, EGFR Ex19del/C797S (Homo sapiens, UniProt P00533, C797S/DEL746-750); conditions: Ba/F3 cells, EGFR Ex19del/C797S (PACC), Mut/WT
# T23 construct: expressed in transfected cells; host or cells: Ba/F3
# Protocol: as §2, §1, §3
# [24] = molecular target: T24, EGFR G724S (Homo sapiens, UniProt P00533, G724S); conditions: Ba/F3 cells, EGFR G724S (PACC), Mut/WT
# T24 construct: expressed in transfected cells; host or cells: Ba/F3
# Protocol: as §2, §1, §3
# [25] = molecular target: T25, EGFR E709K G719S (Homo sapiens, UniProt P00533, E709K/G719S); conditions: Ba/F3 cells, EGFR E709K G719S (PACC), Mut/WT
# T25 construct: expressed in transfected cells; host or cells: Ba/F3
# [26] = molecular target: T26, EGFR L861Q (Homo sapiens, UniProt P00533, L861Q); conditions: Classical-Like, 72 hours
# T26 construct: expressed in transfected cells; host or cells: Ba/F3 cells, retroviral pBabe-Puro vector
# Protocol: as §5, §1, §6
# [27] = molecular target: T27, EGFR A763insFQEA (Homo sapiens, UniProt P00533, INS763FQEA); conditions: Classical-Like, 72 hours
# T27 construct: expressed in transfected cells; host or cells: Ba/F3 cells, retroviral pBabe-Puro vector
# Protocol: as §5, §1, §6
Compound,ratio of the IC50 value for cells with a PACC EGFR mutation to the IC50 value for cells with wildtype EGFR [1],ratio of IC50 for cells with mutant EGFR to IC50 for cells with wildtype EGFR (Mut/WT) [2],ratio of IC50 for cells with mutant EGFR to IC50 for cells with wildtype EGFR (Mut/WT) [4],ratio of the IC50 value for cells with a PACC EGFR mutation to the IC50 value for cells with wildtype EGFR [5],ratio of the IC50 value for cells with a PACC EGFR mutation to the IC50 value for cells with wildtype EGFR [6],ratio of IC50 for cells with mutant EGFR to IC50 for cells with wildtype EGFR (Mut/WT) [7],ratio of the IC50 value for cells with a PACC EGFR mutation to the IC50 value for cells with wildtype EGFR [8],ratio of IC50 for cells with mutant EGFR to IC50 for cells with wildtype EGFR (Mut/WT) [9],ratio of IC50 for cells with mutant EGFR to IC50 for cells with wildtype EGFR (Mut/WT) [10],ratio of the IC50 value for cells with a PACC EGFR mutation to the IC50 value for cells with wildtype EGFR [11],ratio of IC50 for cells with mutant EGFR to IC50 for cells with wildtype EGFR (Mut/WT) [13],ratio of IC50 for cells with mutant EGFR to IC50 for cells with wildtype EGFR (Mut/WT) [14],ratio of the IC50 value for cells with a PACC EGFR mutation to the IC50 value for cells with wildtype EGFR [15],ratio of the IC50 value for cells with a PACC EGFR mutation to the IC50 value for cells with wildtype EGFR [16],ratio of IC50 for cells with mutant EGFR to IC50 for cells with wildtype EGFR (Mut/WT) [17],ratio of the IC50 value for cells with a PACC EGFR mutation to the IC50 value for cells with wildtype EGFR [18],ratio of IC50 for cells with mutant EGFR to IC50 for cells with wildtype EGFR (Mut/WT) [19],ratio of the IC50 value for cells with a PACC EGFR mutation to the IC50 value for cells with wildtype EGFR [20],ratio of IC50 for cells with mutant EGFR to IC50 for cells with wildtype EGFR (Mut/WT) [21],ratio of IC50 for cells with mutant EGFR to IC50 for cells with wildtype EGFR (Mut/WT) [22],also measured
C=CC(=O)Nc1cc(Nc2nccc(-c3c[nH]c4ccccc34)n2)c(OC)cc1N(C)CCN(C)C [AZ5104],0.3756,0.5871,1.486,1.339,0.207,56.35,0.219,1.125,0.1151,0.8807,1.73,0.3285,119.2,0.1896,0.009841,1.64,0.1839,2.622,0.03029,0.1667,ratio of IC50 for cells with mutant EGFR to IC50 for cells with wildtype EGFR (Mut/WT) [3]: 0.6044; ratio of IC50 for cells with mutant EGFR to IC50 for cells with wildtype EGFR (Mut/WT) [12]: 0.1837; ratio of the IC50 value for cells with a PACC EGFR mutation to the IC50 value for cells with wildtype EGFR [23]: 49.96; ratio of the IC50 value for cells with a PACC EGFR mutation to the IC50 value for cells with wildtype EGFR [24]: 36.15; ratio of the IC50 value for cells with a PACC EGFR mutation to the IC50 value for cells with wildtype EGFR [25]: 0.7973; ratio of IC50 for cells with mutant EGFR to IC50 for cells with wildtype EGFR (Mut/WT) [26]: 0.5871; ratio of IC50 for cells with mutant EGFR to IC50 for cells with wildtype EGFR (Mut/WT) [27]: 0.3966
C=CC(=O)Nc1cc(Nc2nccc(-n3cc(CN(C)C)c(-c4ccccc4)n3)n2)c(OC)cc1N1CCOCC1 [Lazertinib],0.1555,0.0005009,1.105,0.04944,0.2612,26.17,0.2759,0.2517,0.0006261,1.423,4.027,0.01957,28.05,0.362,0.01568,2.619,0.003464,0.6184,0.1304,0.00108,ratio of the IC50 value for cells with a PACC EGFR mutation to the IC50 value for cells with wildtype EGFR [23]: 11.82; ratio of the IC50 value for cells with a PACC EGFR mutation to the IC50 value for cells with wildtype EGFR [24]: 26.17; ratio of the IC50 value for cells with a PACC EGFR mutation to the IC50 value for cells with wildtype EGFR [25]: 0.2652; ratio of IC50 for cells with mutant EGFR to IC50 for cells with wildtype EGFR (Mut/WT) [26]: 0.05622; ratio of IC50 for cells with mutant EGFR to IC50 for cells with wildtype EGFR (Mut/WT) [27]: 0.03797
